Source: US20140378406A1, “SILVER BASED GELS FOR ANTIMICROBIAL APPLICATIONS” (The University of Akron, priority 2012, published 2014)

Experiments:
Experiment in all cases: Minimal inhibitory concentration (MIC), CLSI procedures
Assay type in all cases: cell-based
Pseudomonas aeruginosa = tested on: Pseudomonas aeruginosa
Experimental: (§1) The combination of aqueous solutions of 50 mM glutathione and 50 mM silver carbene complex SCC22 at ambient conditions in a 1:1.25 ratio (final concentration 20 mM glutathione and 25 mM SCC22) results in a colorless hydrogel material. The gel was tested to determine its minimal inhibitory concentration (MIC) on three bacterial species including Pseudomonas aeruginosa, Staphylococcus aureus, and Escherichia coli using procedures published by the Clinical and Laboratory Standards Institute. The combination of aqueous solutions of 50 mM glutathione and 50 mM silver carbene complex SCC1 at ambient conditions in a 1:1.67 ratio (final concentration 15 mM glutathione and 25 mM SCC1) results in a colorless hydrogel material. The gel was tested to determine its minimal inhibitory concentration (MIC) on three bacterial species including Pseudomonas aeruginosa, Staphylococcus aureus, and Escherichia coli using procedures published by the Clinical and Laboratory Standards Institute. The combination of aqueous solutions of 50 mM glutathione and 50 mM silver carbene complex SCC8 at ambient conditions in a 1:1.25 ratio (final concentration 20 mM glutathione and 25 mM SCC8) results in a colorless hydrogel material (GSH8). The gel was tested to determine its minimal inhibitory concentration (MIC) on three bacterial species including Pseudomonas aeruginosa, Staphylococcus aureus, and Escherichia coli using procedures published by the Clinical and Laboratory Standards Institute.

Staphylococcus aureus = tested on: Staphylococcus aureus
Experimental: as §1

Escherichia coli = tested on: Escherichia coli
Experimental: as §1

MIC P. aeruginosa (Pseudomonas aeruginosa): 4 µg/mL
MIC S. aureus (Staphylococcus aureus): 4 µg/mL
MIC E. coli (Escherichia coli): 4 µg/mL
SMILES: NC[C@H]1O[C@H](O[C@H]2[C@H](O)[C@@H](O[C@H]3O[C@H](CO)[C@@H](O)[C@H](N)[C@H]3O)[C@H](N)C[C@@H]2N)[C@H](N)C[C@@H]1O [Tobramycin]
